For one data set, the system named is HTLV-III/LAV. The conditions noted are these: cell line H9; cited from earlier work.
The nature of data set [1]: Solubility of nystatin / polyenes. Format: physicochemical.
For the next data set, the system named is human RBCs. Description: Lysis of human red blood cells (hemoglobin release at 550 nm). The conditions noted are these: 37 °C, 45 min. Type of data set: cell-based. Here is the method: Lysis of human red blood cells (RBCs) was quantitated by measuring the release of hemoglobin in the supernatants at 550 nm, as described previously (Mehta et al., Biochem. Biophys, Acta., Vol. 770, pp. 230-234 (1984)). Various doses of L-Nys were incubated with fresh washed human RBCs at 37° C for 45 min. Free-Nys, dissolved in dimethyl formamide (DMFA), was added to the assay at a 3% final solvent concentration. Appropriate solvent controls, empty liposomes, and empty liposomes plus free-drug were also included in each experiment. Release of hemoglobin by hypotonic lysis of the same number of human RBCs by water was taken as 100% positive control, while cells treated with PBS were taken as negative controls.

The test system of data set [2] is Candida albicans. The experiment in a line: Single-dose therapy with free Nys of disseminated C. albicans infection in mice. The conditions noted are these: single iv dose, 1 mg to 4 mg/kg. Format: in vivo, Hale-Stoner mice. Here is the method: (§1) Hale-Stoner mice, six to eight weeks old (body weight, 20-25 g) were purchased from The University of Texas Science Park (Bastrop, TX). The mice (eight per group) were injected with 0.2 ml of C. albicans cell suspension containing 7×10^5 colony-forming units (cfu) via the tail vein. This concentration of cells was consistent in producing a disseminated infection after 48 hr, affecting liver, spleen, lungs, and kidneys primarily. Infected mice were treated with increasing doses of free-Nys, ranging from 1 mg to 4 mg/kg body weight (FIG. 5).

The next data set concerns Cryptococcus neoformans. Description: In vitro antifungal spectrum, MIC (Table 6). Format: cell-based. The procedure:
(§2) Organism, culture, and assay of antifungal activity in vitro. All strains of yeast were grown overnight at 37° C. on Sabouraud dextrose agar (SDA) plates. All molds were grown at 30° C. on SDA for 3 to 10 days prior to collection of spores. The inoculum was then processed for susceptibility testing as described earlier (Hopfer et al., Antimicrob. Agents Chemotherap., Vol. 25, pp 387-389 (1984)). A twofold serial dilution method (Shadomy et al., In E. H. Lennette, et al., (eds.) Manual of Clinical Microbiology, 3rd ed. American Society for Microbiology, Washington, D.C. , pp. 647-653 (1980)) adapted to microtiter plates was used to determine the minimal inhibitory concentration (MIC) of the drugs. The MIC of L-Nys were compared with that of free-Nys. Empty liposomes and 5% dimethylsulfoxide (DMSO) were used as controls.
(§3) The L-Nys was prepared and tested generally as described above in this and earlier examples, except for the various new fungal varieties. […] (Hopfer et al., […], Vol. 25, No. 3, pp. 387-389 (1984)).

A further data set concerns Curvularia. The experiment in a line: In vitro antifungal spectrum, MIC (Table 6). Format: cell-based. Here is the method: as §2, §3
The next data set deals with Aspergillus niger. The experiment in a line: In vitro antifungal spectrum, MIC (Table 6). Format: cell-based. The procedure: as §2, §3
Another data set deals with Allescheria. Description: In vitro antifungal spectrum, MIC (Table 6). Format: cell-based. Here is the method:
as §2, §3

The subject of a further data set is Aspergillus flavus. The experiment in a line: In vitro antifungal spectrum, MIC (Table 6). Type of data set: cell-based. The procedure: as §2, §3
For a further data set, the system named is Candida paratropicalis. The experiment in a line: In vitro antifungal spectrum, MIC (Table 6). Format: cell-based. Here is the method:
as §2, §3

In another data set the test system is Alternaria. The experiment in a line: In vitro antifungal spectrum, MIC (Table 6). Format: cell-based. Here is the method:
as §2, §3

The test system of the next data set is Aspergillus fumigatus. Description: In vitro antifungal spectrum, MIC (Table 6). Format: cell-based. The procedure:
as §2, §3

In another data set the test system is Torulopsis globrata. The experiment in a line: In vitro antifungal spectrum, MIC (Table 6). Type of data set: cell-based. Here is the method:
as §2, §3

Another data set concerns Rhizopus. The experiment in a line: In vitro antifungal spectrum, MIC (Table 6). Format: cell-based. The procedure: as §2, §3
Data set [3] has as its system Candida albicans. The experiment in a line: In vitro antifungal spectrum, MIC (Table 6). Type of data set: cell-based. Here is the method:
as §2, §3

A further data set concerns Mucor. The experiment in a line: In vitro antifungal spectrum, MIC (Table 6). Type of data set: cell-based. Here is the method: as §2, §3
A further data set relates to Candida tropicalis. Description: In vitro antifungal spectrum, MIC (Table 6). Type of data set: cell-based. The procedure: as §2, §3
The test system of the next data set is Fusarium. Description: In vitro antifungal spectrum, MIC (Table 6). Type of data set: cell-based. Here is the method: as §2, §3
In data set [4] the test system is Aspergillus not fumigatus. Description: In vitro antifungal spectrum, MIC (Table 6). Type of data set: cell-based. Here is the method:
as §2, §3

The subject of data set [5] is Candida albicans strain 336. Description: In vitro MIC, twofold serial dilution, C. albicans strain 336 (Table 5). Format: cell-based. Here is the method:
as §2
The antifungal activity was maintained after Nys was entrapped in liposomes with or without sterols.

Data set [6] concerns Candida albicans. Description: Multiple-dose therapy with Nys or L-Nys of disseminated C. albicans infection in mice. Type of data set: in vivo, Hale-Stoner mice. The procedure: as §1
Two days after the injection of C. albicans (iv), (as described in Examples 9 and 10), the mice were treated with different doses of free-Nys, L-Nys, empty liposomes or 5% DMSO control for five consecutive days. The multiple-dose groups were also compared with appropriate cumulative single doses (see Example 10). The animals were then observed for survival or any toxicity pertaining to the treatment with five daily doses.
These experiments were terminated at 60 days, and blood and tissue samples were collected from the surviving animals after sacrifice.
Survival curves were calculated by the method of Kaplan and Meier (J. Amer. Stat. Assoc., Vol. 53, pp 457-462 […]) and tests for differences in survival distributions were based on a generalized Wilcoxon test (Gehan., Biometrika, Vol. 52, pp 203-223 (1965)). […]

The conditions of data set [7]: cited from earlier work.
Data set [8] has as its system Candida albicans. The experiment in a line: Single-dose therapy with free Nys or L-Nys of disseminated C. albicans infection in mice. Type of data set: in vivo, Hale-Stoner mice. The conditions noted are these: 4 mg/kg. Here is the method: as §1
Mice were infected with C. albicans as described in Example 9. Groups of eight mice each were injected (iv) with various doses of free-Nys, L-Nys, empty liposomes or 5% DMSO two days after the injection of C. albicans. The survival of the animals in each group was noted and compared with that of the untreated control group.

A further data set deals with mice. Description: In vivo toxicology in Hale-Stoner mice. Here is the method: Groups of eight Hale-Stoner mice (6-8 weeks old, body wt=20-25 g; Univ. of TX Science Park, Bastrop, TX) each were injected with various doses of free-Nys (in 5% DMSO diluted with saline), L-Nys, empty liposomes or 5% DMSO as control. […] After 45 days, the surviving animals were sacrificed and blood and tissue samples were obtained. Blood biochemistry examination included blood urea nitrogen, alkaline phosphatase, and lactic dehydrogenase (LDH). The organs (liver, spleen, lungs and kidneys) were obtained and preserved in 10% formalin. Tissue slices were processed for hematoxylin-eosin and Gomori methenamine silver stains.

The conditions of data set [9]: orally and topically; cited from earlier work.

Here are results for 3 compounds from patent US4812312A, “Liposome-incorporated nystatin” (Board of Regents of the University of Texas System, priority 1987, dated 1989).

Like-named read-outs stand apart in the source and are kept apart here.

On to `COC(=O)[C@H]1[C@@H]2C[C@@H](O[C@@H]3O[C@H](C)[C@@H](O)[C@H](N)[C@@H]3O)/C=C/C=C/C=C/C=C/C=C/C=C/C=C/[C@H](C)[C@@H](O)[C@@H](C)[C@H](C)OC(=O)C[C@H](O)C[C@H](O)CC[C@@H](O)[C@H](O)C[C@H](O)C[C@](O)(C[C@@H]1O)O2` [amphotericin B methyl ester ascorbate], for which the “replication of HTLV-III/LAV in H9 cells” value with HTLV-III/LAV is “inhibited”.
Consider `C[C@@H]1[C@H](O)[C@@H](C)/C=C/C=C/C=C/C=C/C=C/C=C/C=C/[C@H](O[C@@H]2O[C@H](C)[C@@H](O)[C@H](N)[C@@H]2O)C[C@@H]2O[C@](O)(C[C@@H](O)C[C@@H](O)[C@H](O)CC[C@@H](O)C[C@@H](O)CC(=O)O[C@H]1C)C[C@H](O)[C@H]2C(=O)O` [amphotericin B], for which the “replication of HTLV-III/LAV in H9 cells” value in the data set with HTLV-III/LAV is “inhibited”.
On to `C[C@@H]1[C@H](O)[C@@H](C)/C=C/C=C/CC/C=C/C=C/C=C/C=C/C(O[C@H]2O[C@H](C)[C@@H](O)[C@H](N)[C@@H]2O)CC2O[C@](O)(CC(O)C(O)CCC(O)CC(O)CC(O)CC(=O)O[C@H]1C)CC(O)C2C(=O)O` (some centres unmarked) [free-Nys, nystatin], for which the “soluble in DMFA” value in data set [1] (N,N-dimethylformamide) came to 15 mg/mL. In data set [1] (dimethyl sulfoxide), the “soluble in DMSO” value worked out at 40 mg/mL. In data set [1] (methanol), this compound registered a soluble in methanol of 1 mg/mL. The “lysis of human RBCs” value in the data set on human RBCs (120 ug/ml) worked out at 100%. Moreover, the “concentration range with linear increase in lysis of human RBCs” value in the data set with human RBCs lay in the range of 60 to 120 µg/mL. The “survival of infected mice versus untreated control” value in the data set on Candida albicans [2] is “None of the doses tested improved the survival of infected mice”. Also, the “Minimal Inhibitory Concentration” value is 4 µg/mL in the data set on Cryptococcus neoformans (Cryptococcus neoformans #1); 4 µg/mL in the data set with Cryptococcus neoformans (Cryptococcus neoformans #2); 2 µg/mL in the data set on Curvularia; 4 µg/mL in the data set on Aspergillus niger; 16 µg/mL with Allescheria; 1 µg/mL in the data set with Aspergillus flavus. For the same compound, the “Minimal Inhibitory Concentration” value with Candida paratropicalis (C. paratropicalis #1) is 2 µg/mL; in the data set with Candida paratropicalis (C. paratropicalis #2), 2 µg/mL; with Candida paratropicalis (C. paratropicalis #3), 4 µg/mL; in the data set with Candida paratropicalis (C. paratropicalis #4) it was 4 µg/mL; with Alternaria it was 2 µg/mL; in the data set with Aspergillus fumigatus it was 8 µg/mL. The “Minimal Inhibitory Concentration” value in the data set on Torulopsis globrata (Torulopsis globrata #1) came out at 4 µg/mL; with Torulopsis globrata (Torulopsis globrata #2), 2 µg/mL; in the data set on Torulopsis globrata (Torulopsis globrata #3) it was 4 µg/mL; in the data set with Torulopsis globrata (Torulopsis globrata #4) it was 4 µg/mL; in the data set on Rhizopus, 4 µg/mL; with Candida albicans [3] (C. albicans #1), 2 µg/mL. For the same compound, the “Minimal Inhibitory Concentration” value in the data set with Candida albicans [3] (C. albicans #2) is 2 µg/mL; in the data set on Candida albicans [3] (C. albicans #3) it was 4 µg/mL; in the data set on Candida albicans [3] (C. albicans #4), 4 µg/mL; in the data set with Candida albicans [3] (C. albicans #5) it was 8 µg/mL; with Candida albicans [3] (C. albicans #6), 4 µg/mL; in the data set with Candida albicans [3] (C. albicans #7), 8 µg/mL. The “Minimal Inhibitory Concentration” value in the data set with Candida albicans [3] (C. albicans #8) is 8 µg/mL; in the data set with Candida albicans [3] (C. albicans #9), 4 µg/mL; with Candida albicans [3] (C. albicans #10), 4 µg/mL; in the data set on Mucor it was 2 µg/mL; in the data set with Candida tropicalis (C. tropicalis #1) it was 16 µg/mL; in the data set with Candida tropicalis (C. tropicalis #2) it was 8 µg/mL. Besides, the “Minimal Inhibitory Concentration” value worked out at 4 µg/mL with Candida tropicalis (C. tropicalis #3); 4 µg/mL in the data set with Candida tropicalis (C. tropicalis #4); 62.5 µg/mL in the data set on Fusarium; 4 µg/mL in data set [4] (Aspergillus not fumigatus #1); 16 µg/mL in [4] (Aspergillus not fumigatus #2); 1.0 µg/mL in data set [5]. The survival time in the data set with Candida albicans [6] (single or multiple doses) stood at 10 days. For the same compound, in the data set on Candida albicans [6] (single or multiple doses (MTD, five consecutive days)), the “survival of infected mice” value is reported as “died as rapidly as the untreated controls”. Besides, the solubility in water entry is recorded as “substantially water-insoluble” in data set [7] (listed as Nys) and “aqueous insolubility” in [7] (listed as Nystatin). Further, the “therapeutic effect in vivo” value in the data set on Candida albicans [8] is recorded as “no therapeutic effect in vivo”. In the data set on mice (4.4 mg/kg, mice, iv), the mortality entry was “all the animals died immediately”. For the same compound, in the data set on mice (intravenous, summary), the “toxicity and efficacy when administered intravenously” value was “toxic and noneffective when administered intravenously”. For the same compound, in the data set on mice (mice, iv, per body weight), the “maximal tolerated dose (MTD)” value is reported as 4 mg/kg. Further, in [9], the tolerability entry is “Tolerated well both orally and topically”.
